Results taken from publication PMC10613524, “Rational design of the genetic code expansion toolkit for in vivo encoding of D-amino acids” (Frontiers in Genetics, 2023).

Molecular target: T1, PylRSc (truncated PylRS, residues 185-454); mutant DFRSc (Methanosarcina mazei, UniProt Q8PWY1, S193R/N346G/C348Q/V401G, form not given)
T1 construct: gene pylS; C-terminal catalytic domain, residues 185-454, expressed in E. coli BL21 (DE3), Ni-NTA purified (DFRSc)
Assay: ATP-[…]PPi exchange assay (amino acid activation)
Format: biochemical
Conditions: apparent, 2 mM ATP, 1 mM PPi, 10 mM MgCl2, pH 7.2, 37°C, header prints μM × 10^3, text mM, read-out: K M , μM × 10^3

T1 sequence (Q8PWY1 185-454 S193R/N346G/C348Q/V401G, form open): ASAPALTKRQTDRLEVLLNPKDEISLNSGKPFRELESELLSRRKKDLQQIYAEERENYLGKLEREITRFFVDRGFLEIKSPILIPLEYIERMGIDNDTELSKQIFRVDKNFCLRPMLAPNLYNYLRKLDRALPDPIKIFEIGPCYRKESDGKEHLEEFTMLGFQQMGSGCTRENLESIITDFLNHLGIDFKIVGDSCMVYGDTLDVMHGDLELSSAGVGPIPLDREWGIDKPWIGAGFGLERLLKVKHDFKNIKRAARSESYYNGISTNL

| Km [µM] | Structure (SMILES) |
| --- | --- |
| 5380 ± 1280 | N[C@@H](Cc1cccc(Cl)c1)C(=O)O [compound 4, L-Cl-Phe] |
| 7120 ± 1670 | N[C@@H](Cc1cccc(C(F)(F)F)c1)C(=O)O [compound 2, L-CF3-Phe] |
| 9800 ± 1650 | N[C@@H](Cc1cccc(Br)c1)C(=O)O [compound 6, L-Br-Phe] |
